Results from PubChem BioAssay (NCI).
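1) Cells in 96-well plates. 2) Compound, 48 h, 5 concentrations. 3) Linear interpolation between surrounding doses. 4) Unreached endpoint = highest concentration. GI50 marks 50% less growth. TGI denotes the concentration required for complete inhibition of growth.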

Experiments:
Test in all cases: DTP human tumour cell line panel, 48 h
NCI-H226 lung = system: NCI-H226 lung
OVCAR-3 ovarian = system: OVCAR-3 ovarian
LOX IMVI melanoma = system: LOX IMVI melanoma
OVCAR-5 ovarian = system: OVCAR-5 ovarian
NCI/ADR-RES ovarian = system: NCI/ADR-RES ovarian
COLO 205 colon = system: COLO 205 colon
SF-268 CNS = system: SF-268 CNS
SF-295 CNS = system: SF-295 CNS
HCC-2998 colon = system: HCC-2998 colon
NCI-H522 lung = system: NCI-H522 lung

Compound: O=c1c2c([nH]c3nccn13)CCC2
- TGI (NCI-H226 lung): > 10 µM
- TGI (OVCAR-3 ovarian): > 10 µM
- TGI (LOX IMVI melanoma): > 10 µM
- TGI (OVCAR-5 ovarian): > 10 µM
- TGI (NCI/ADR-RES ovarian): > 10 µM
- TGI (COLO 205 colon): > 10 µM
- TGI (SF-268 CNS): > 10 µM
- TGI (SF-295 CNS): > 10 µM

Compound: C=CCn1c(=S)sc2c(C(=O)OCC)c3c(C)cc(C)cn3c2c1=O
- TGI (HCC-2998 colon): > 100 µM
- TGI (NCI-H226 lung): > 100 µM
- TGI (OVCAR-3 ovarian): > 100 µM
- TGI (LOX IMVI melanoma): > 100 µM
- TGI (OVCAR-5 ovarian): > 100 µM
- TGI (NCI-H522 lung): > 100 µM
- TGI (COLO 205 colon): > 100 µM
- TGI (SF-268 CNS): > 100 µM
- TGI (SF-295 CNS): > 100 µM

Compound: C=C(C)[C@@H]1CCC=C2CC[C@]3(C)[C@H](CC[C@@H]4[C@@]5(C)CCCNC(C)(C)[C@@H]5CC[C@]43C)[C@H]21
- GI50 (NCI-H226 lung): 2.8 µM
- TGI (NCI-H226 lung): 9.14 µM
- GI50 (OVCAR-3 ovarian): 1.8 µM
- TGI (OVCAR-3 ovarian): 3.29 µM
- GI50 (OVCAR-5 ovarian): 2.01 µM
- TGI (OVCAR-5 ovarian): 4.46 µM
- GI50 (NCI-H522 lung): 2.28 µM
- TGI (NCI-H522 lung): 5.64 µM
- GI50 (COLO 205 colon): 1.9 µM
- TGI (COLO 205 colon): 3.65 µM
- GI50 (SF-268 CNS): 2.77 µM
- TGI (SF-268 CNS): 8.53 µM
- GI50 (SF-295 CNS): 1.69 µM
- TGI (SF-295 CNS): 3.13 µM

Compound: Cc1ccc(S(=O)(=O)N/N=C(\c2nc3ccc(Cl)cc3[nH]c2=O)C(O)c2ccco2)cc1 (stereo not given)
- TGI (HCC-2998 colon): > 100 µM
- TGI (NCI-H226 lung): > 100 µM
- TGI (OVCAR-3 ovarian): > 100 µM
- TGI (LOX IMVI melanoma): > 100 µM
- TGI (OVCAR-5 ovarian): > 100 µM
- TGI (COLO 205 colon): > 100 µM
- TGI (SF-268 CNS): > 100 µM
- TGI (SF-295 CNS): > 100 µM

Compound: O=c1cc(-c2ccccn2)[nH]c2cccc(F)c12
- TGI (HCC-2998 colon): > 100 µM
- TGI (NCI-H226 lung): > 100 µM
- TGI (OVCAR-3 ovarian): > 100 µM
- TGI (LOX IMVI melanoma): > 100 µM
- TGI (OVCAR-5 ovarian): > 100 µM
- TGI (NCI-H522 lung): > 100 µM
- TGI (COLO 205 colon): > 100 µM
- TGI (SF-295 CNS): > 100 µM

Compound: CO/N=C(\COc1ccc2c(=O)c3ccccc3oc2c1)c1ccccc1
- GI50 (NCI-H226 lung): 40.8 µM
- TGI (NCI-H226 lung): > 100 µM
- GI50 (OVCAR-3 ovarian): 27.4 µM
- TGI (OVCAR-3 ovarian): 79.3 µM
- GI50 (LOX IMVI melanoma): 35.9 µM
- TGI (LOX IMVI melanoma): > 100 µM
- GI50 (OVCAR-5 ovarian): 38.4 µM
- TGI (OVCAR-5 ovarian): > 100 µM
- GI50 (NCI/ADR-RES ovarian): 77.1 µM
- TGI (NCI/ADR-RES ovarian): > 100 µM
- GI50 (NCI-H522 lung): 33.4 µM
- TGI (NCI-H522 lung): > 100 µM
- GI50 (COLO 205 colon): > 100 µM
- TGI (COLO 205 colon): > 100 µM
- GI50 (SF-268 CNS): 33.2 µM
- TGI (SF-268 CNS): > 100 µM
- GI50 (SF-295 CNS): 28.7 µM
- TGI (SF-295 CNS): 78.1 µM

Compound: CCCn1c(SCCSc2c3ccccc3c(-c3nc(F)nc(F)n3)n2CCC)c2ccccc2c1-c1nc(F)nc(F)n1
- TGI (HCC-2998 colon): > 100 µM
- TGI (OVCAR-3 ovarian): > 100 µM
- TGI (OVCAR-5 ovarian): > 100 µM
- TGI (NCI-H522 lung): > 100 µM
- TGI (COLO 205 colon): > 100 µM
- TGI (SF-268 CNS): > 100 µM
- TGI (SF-295 CNS): > 100 µM

Compound: Cc1c(C(=O)C/C(=N/NC(=O)c2ccccc2)C(=O)Nc2ccc(Cl)cc2)[n+](=O)c2ccccc2n1[O-]
- TGI (NCI-H226 lung): > 100 µM
- TGI (OVCAR-3 ovarian): > 100 µM
- TGI (LOX IMVI melanoma): > 100 µM
- TGI (OVCAR-5 ovarian): > 100 µM
- TGI (NCI-H522 lung): > 100 µM
- TGI (COLO 205 colon): > 100 µM
- TGI (SF-268 CNS): > 100 µM
- TGI (SF-295 CNS): > 100 µM

Compound: O=C(/C=C(\O)C(=O)O)/C=C(\O)c1ccccc1
- GI50 (HCC-2998 colon): > 100 µM
- TGI (HCC-2998 colon): > 100 µM
- GI50 (NCI-H226 lung): > 1 µM
- TGI (NCI-H226 lung): > 100 µM
- GI50 (OVCAR-3 ovarian): > 1 µM
- TGI (OVCAR-3 ovarian): > 46.4 µM
- GI50 (LOX IMVI melanoma): > 1 µM
- TGI (LOX IMVI melanoma): > 100 µM
- GI50 (OVCAR-5 ovarian): > 100 µM
- TGI (OVCAR-5 ovarian): > 100 µM
- GI50 (NCI-H522 lung): > 1 µM
- TGI (NCI-H522 lung): > 1 µM
- GI50 (COLO 205 colon): > 1 µM
- TGI (COLO 205 colon): > 25.9 µM
- GI50 (SF-268 CNS): > 1 µM
- TGI (SF-268 CNS): > 100 µM
- TGI (SF-295 CNS): > 100 µM

Compound: Cc1cc2c(c(C(N)=O)c1C)-c1cccc(F)c1C2=O
- TGI (HCC-2998 colon): > 100 µM
- TGI (OVCAR-3 ovarian): > 100 µM
- TGI (LOX IMVI melanoma): > 100 µM
- TGI (OVCAR-5 ovarian): > 100 µM
- TGI (NCI-H522 lung): > 100 µM
- TGI (COLO 205 colon): > 100 µM
- TGI (SF-268 CNS): > 100 µM
- TGI (SF-295 CNS): > 100 µM

Compound: N#C/C(=C1\SCC(=O)N1c1ccccc1)c1nc2ccccc2[nH]1
- TGI (NCI-H226 lung): > 100 µM
- TGI (OVCAR-3 ovarian): > 100 µM
- TGI (LOX IMVI melanoma): > 100 µM
- TGI (OVCAR-5 ovarian): > 100 µM
- TGI (NCI-H522 lung): > 100 µM
- TGI (COLO 205 colon): > 100 µM
- TGI (SF-268 CNS): > 100 µM
- TGI (SF-295 CNS): > 100 µM

Compound: CCOC(=O)NC(=O)c1cn(CCN2CCN(C(=O)CNC(=O)CNC(=O)Cn3cc(C(=O)NC(=O)OCC)c(=O)[nH]c3=O)CC2)c(=O)[nH]c1=O
- TGI (HCC-2998 colon): > 100 µM
- TGI (OVCAR-3 ovarian): > 100 µM
- TGI (LOX IMVI melanoma): > 100 µM
- TGI (OVCAR-5 ovarian): > 100 µM
- TGI (NCI-H522 lung): > 100 µM
- TGI (COLO 205 colon): > 100 µM
- TGI (SF-268 CNS): > 100 µM
- TGI (SF-295 CNS): > 100 µM

Compound: COC(=O)CCC(NC(=S)N/N=C(\C)c1ccc[nH]1)C(=O)OC (stereo not given)
- TGI (HCC-2998 colon): > 100 µM
- TGI (NCI-H226 lung): > 100 µM
- TGI (OVCAR-3 ovarian): > 100 µM
- TGI (LOX IMVI melanoma): > 100 µM
- TGI (OVCAR-5 ovarian): > 100 µM
- TGI (NCI-H522 lung): > 100 µM
- TGI (COLO 205 colon): > 100 µM
- TGI (SF-268 CNS): > 100 µM
- TGI (SF-295 CNS): > 100 µM

Compound: [N-]=[N+]=NC(c1cn(C2CC(O)C(CO)O2)c(=O)[nH]c1=O)C(Cl)Br (stereo not given)
- TGI (HCC-2998 colon): > 100 µM
- TGI (NCI-H226 lung): > 100 µM
- TGI (LOX IMVI melanoma): > 100 µM
- TGI (NCI-H522 lung): > 100 µM
- TGI (COLO 205 colon): > 100 µM
- TGI (SF-295 CNS): > 100 µM

Compound: C=CC(=O)N1C/C(=C\c2ccc(Cl)c(Cl)c2)C(=O)/C(=C/c2ccc(Cl)c(Cl)c2)C1
- TGI (HCC-2998 colon): 0.446 µM
- TGI (NCI-H226 lung): 2.73 µM
- TGI (OVCAR-3 ovarian): 0.219 µM
- TGI (LOX IMVI melanoma): 0.842 µM
- TGI (OVCAR-5 ovarian): 1.02 µM
- TGI (NCI-H522 lung): 0.302 µM
- TGI (COLO 205 colon): 0.243 µM
- TGI (SF-268 CNS): 0.298 µM
- TGI (SF-295 CNS): 0.891 µM
